Structures are written as SMILES. Values joined by “and” are separate entries in the source; they are usually repeats but may differ in a detail not shown here. Identical values can stand only once. “Also recorded” adds a separate entry of the source. Like-named read-outs stand apart in the source and are kept apart here.

Data set [1] deals with T1, HT-1080-FAP tumor slide (Homo sapiens, UniProt Q12884).
T1 construct: from tissue; host or cells: slides of HT-1080-FAP xenograft tumor (transfected human fibrosarcoma cells grown subcutaneously in BALB/C-nu/nu mice)
T1 sequence (Q12884 1-760): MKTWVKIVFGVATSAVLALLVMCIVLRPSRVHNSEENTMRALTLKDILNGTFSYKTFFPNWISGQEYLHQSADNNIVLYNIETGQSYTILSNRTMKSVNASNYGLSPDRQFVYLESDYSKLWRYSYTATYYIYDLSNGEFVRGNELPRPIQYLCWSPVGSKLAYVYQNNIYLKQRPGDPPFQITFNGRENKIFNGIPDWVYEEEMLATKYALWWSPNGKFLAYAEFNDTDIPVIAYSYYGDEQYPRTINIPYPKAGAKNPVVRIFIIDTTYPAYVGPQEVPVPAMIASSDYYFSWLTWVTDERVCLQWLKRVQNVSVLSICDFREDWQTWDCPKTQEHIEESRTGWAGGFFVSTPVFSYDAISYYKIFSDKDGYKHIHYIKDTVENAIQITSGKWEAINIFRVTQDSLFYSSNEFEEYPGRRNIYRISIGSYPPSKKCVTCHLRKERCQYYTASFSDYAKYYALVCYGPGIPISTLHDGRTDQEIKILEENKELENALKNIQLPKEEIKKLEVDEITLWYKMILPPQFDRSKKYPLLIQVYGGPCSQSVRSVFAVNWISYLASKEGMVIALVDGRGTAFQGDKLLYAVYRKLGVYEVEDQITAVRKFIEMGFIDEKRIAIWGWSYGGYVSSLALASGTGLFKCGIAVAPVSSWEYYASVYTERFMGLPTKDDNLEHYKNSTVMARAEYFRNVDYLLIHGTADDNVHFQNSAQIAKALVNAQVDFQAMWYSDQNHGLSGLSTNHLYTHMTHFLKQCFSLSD
The data set is described as follows: in vitro autoradiography of HT-1080-FAP tumor slides. Particulars: unlabeled 20 at 130 μM. The protocol:
The slides of HT-1080-FAP tumor were incubated with [^18F]21 for 1 h, exposed on a phosphoscreen, and subsequently scanned on a Beckman Coulter FLA7000IP Typhoon storage phosphorimager. Immunohistochemical staining of FAP was performed on the adjacent section.

Data set [2] deals with T2, FAP (Homo sapiens, UniProt Q12884).
T2 construct: expressed in transfected cells; host or cells: HT-1080 human fibrosarcoma cells (HT-1080-FAP)
T2 sequence (Q12884 1-760): T1 sequence (Q12884 1-760)
The data set is described as follows: competitive FAP binding assay against [^177Lu]Lu-FAPI-04 in HT-1080-FAP cells.

In data set [3] the test system is HT-1080 xenograft. The data set can be described thus: micro-PET/CT imaging, FAP-negative HT-1080 xenograft. It counts as in vivo, BALB/C-nu/nu mice. Particulars: dynamic PET 0-120 min. The protocol:
(§1) All animal experiments were conducted in compliance with a protocol approved by the First Affiliated Hospital of Sun Yat-sen University Institutional Animal Care and Use Committee. BALB/C-nu/nu mice (4–5-week old with body weight of 16–22 g) were purchased from GemPharmatech Co., Ltd. Mice were housed under standard conditions with temperature and light control (12-h-light/12-h-dark cycle) and had free access to water and food. For the tumor model, HT-1080-FAP or HT-1080 cells (5 × 10^6) were subcutaneously injected into the right or left flank of nude mice, respectively. As the tumor diameter reached 3–4 mm, mice were treated with radioligands. Micro-PET and SPECT imaging studies, as well as biodistribution, were conducted when the tumor diameter reached 5–10 mm.
(§2) The dynamic micro-PET/CT (Siemens Inveon) imaging studies were conducted to evaluate the pharmacokinetics. The HT-1080-FAP and HT-1080 tumor-bearing mice were injected with 3.7–7.4 MBq of [^18F]21 or [^68 Ga]Ga-FAPI-04 via tail vein. […] Dynamic PET scans were performed from 0 to 120 min with image reconstruction of every 5 min. Micro-PET imaging was reconstructed using a three-dimensional ordered-subset expectation maximum (OSEM) algorithm (Siemens, Erlangen, Germany). The images and regions of interest (ROIs) were produced using Inveon Research Workplace (Siemens, Erlangen, Germany).

Data set [4] is described as follows: in vivo stability in ICR mice, blood samples (radio-HPLC). The protocol: (§3) [^18F]21 or [^177Lu]21 (50 μCi, 10 μL) was added to PBS (90 μL) or murine serum (90 μL) and the mixture was incubated at 37 °C for a certain time ([^18F]21: 2 h, [^177Lu]21: 8 d). The PBS mixture was injected directly into the radio-HPLC for analysis. The murine serum was precipitated with 0.1 mL of acetonitrile and centrifuged (10,000 rpm, 5 min). The supernatant was measured and analyzed by the radio-HPLC to determine the stability. For in vivo stability study, the radio tracers were injected into the tail vein of ICR mice and samples of blood were collected after a certain time post injection (pi) ([^18F]21: 4 h, [^177Lu]21: 9 h). The plasma proteins were precipitated using an equal volume of acetonitrile and centrifuged (10,000 rpm, 5 min). The RCP of radio tracer in supernatants were analyzed and quantified by radio-HPLC. The radio-HPLC method was as follows: A: 0.1% TFA in H2O, B: ACN, 0–10 min, 0–100% B. The flow rate was 1 mL/min, and the C18 column (4.6 × 150 mm, 5 μm, ZORBAX, Agilent) was used. When using HPLC to assess the stability of [^177Lu]21, the effluent was collected every 30 s due to its less radioactivity, and samples were measured by an automatic γ-counter (2480 Wizard2, Perkin Elmer). The counted samples were plotted as intensity (cpm) against fraction.

The test system of data set [5] is HT-1080-FAP cells. The data set is described as follows: internalization experiments in HT-1080-FAP cells. It counts as cell-based, human. Particulars: 10 min. Here is the method:
(§4) The human fibrosarcoma cell lines HT-1080 and HT-1080-FAP transferred with human FAP gene were both cultured in Dulbecco modified Eagle medium supplemented with 10% fetal bovine serum (Gibco, USA) at 37℃/5% carbon dioxide. For cell uptake experiments, HT-1080-FAP cells (~ 1 × 10^5/well) or HT-1080 (~ 1 × 10^5/well) were seeded in 24-well plates for 24–48 h and incubated at 37℃ with radiolabeled compounds (74 kBq/well) in 0.5 mL of serum-free medium for indicated times. Non-specific binding was determined by co-incubating with 100 μM FAP inhibitor UAMC1110. For competitive FAP binding assays, HT-1080-FAP cells were incubated with [^177Lu]Lu-FAPI-04 (74 kBq/well) in the presence of different concentrations (10^−3–10^4 nM) of competing non-radioactive ligands. For internalization experiments, the radiotracer-incubated cells were washed twice with PBS (pH 7.4), followed by glycine–HCl (0,05 M, pH = 2.8) solution to distinguish between cell surface–bound (acid-releasable) and internalized (acid-resistant) radioligand. For efflux experiments, cells were preincubated with [^177Lu]21 or [^177Lu]Lu-FAPI-04 for 1 h and subsequently incubated at 37 °C in a medium free of radiotracer and serum for different time periods. […] Cell lysates were collected and the radioactivity was determined using a γ-counter.

Data set [6] deals with HT-1080 cells. The data set can be described thus: cell uptake in HT-1080 (FAP negative) cells. Type of data set: cell-based, human. Here is the method:
as §4

Data set [7] in a line: in vitro stability in PBS or murine serum (radio-HPLC). It counts as in vitro ADME. Here is the method: as §3
The test system of data set [8] is HT-1080-FAP xenograft. The data set can be described thus: micro-PET/CT imaging, HT-1080-FAP xenograft. It counts as in vivo, BALB/C-nu/nu mice. Here is the method:
as §1, §2

The test system of data set [9] is HT-1080-FAP cells. The data set is described as follows: cell uptake in HT-1080-FAP cells. Type of data set: cell-based, human. Here is the method:
The human fibrosarcoma cell lines HT-1080 and HT-1080-FAP transferred with human FAP gene were both cultured in Dulbecco modified Eagle medium supplemented with 10% fetal bovine serum (Gibco, USA) at 37℃/5% carbon dioxide. For cell uptake experiments, HT-1080-FAP cells (~ 1 × 10^5/well) or HT-1080 (~ 1 × 10^5/well) were seeded in 24-well plates for 24–48 h and incubated at 37℃ with radiolabeled compounds (74 kBq/well) in 0.5 mL of serum-free medium for indicated times. Non-specific binding was determined by co-incubating with 100 μM FAP inhibitor UAMC1110. For competitive FAP binding assays, HT-1080-FAP cells were incubated with [^177Lu]Lu-FAPI-04 (74 kBq/well) in the presence of different concentrations (10^−3–10^4 nM) of competing non-radioactive ligands. For internalization experiments, the radiotracer-incubated cells were washed twice with PBS (pH 7.4), followed by glycine–HCl (0,05 M, pH = 2.8) solution to distinguish between cell surface–bound (acid-releasable) and internalized (acid-resistant) radioligand. For efflux experiments, cells were preincubated with [^177Lu]21 or [^177Lu]Lu-FAPI-04 for 1 h and subsequently incubated at 37 °C in a medium free of radiotracer and serum for different time periods. The medium was removed and the cells were washed twice with cold PBS (pH 7.4) and subsequently lysed with 0.5 mL of NaOH (1 M). Cell lysates were collected and the radioactivity was determined using a γ-counter.

Where [10] appears, read: 60 min pi, FAPI-04 25 μg/animal co-injected.

In the case of `CC(C)(C)[Si](F)(c1ccc(C(=O)NC[C@H](NC(=O)CCC(C(=O)O)N2CCN(CC(=O)O)CCN(CC(=O)O)CCN(CC(=O)O)CC2)C(=O)NC[C@H]2CC[C@H](C(=O)NCCCOc3ccc4nccc(C(=O)NCC(=O)N5CC(F)(F)C[C@H]5C#N)c4c3)CC2)cc1)C(C)(C)C` (stereo partly drawn) [Compound 20], the “blocking of [^18F]21 autoradiography signal” value in data set [1] is “could be blocked by unlabeled 20”. The IC50 (in general, the concentration that gives 50% inhibition) in data set [2] was found to be 2.29 ± 1.12 nM.

Consider `CC(C)(C)[Si](F)(c1ccc(C(=O)NCC(NC(=O)CCC(C(=O)O)N2CCN(CC(=O)[O-])CCN(CC(=O)[O-])CCN(CC(=O)[O-])CC2)C(=O)NCC2CCC(C(=O)NCCCOc3ccc4nccc(C(=O)NCC(=O)N5CC(F)(F)CC5C#N)c4c3)CC2)cc1)C(C)(C)C.[Lu+3]` (stereo not drawn) [Compound 21], for which, in [2] (HT-1080-FAP cells, competition with [^177Lu]Lu-FAPI-04, read-out: IC50 (binding affinity towards FAP)), the IC50 is 2.53 ± 1.87 nM.

On to `CC(C)(C)[Si]([18F])(c1ccc(C(=O)NCC(NC(=O)CCC(C(=O)O)N2CCN(CC(=O)[O-])CCN(CC(=O)[O-])CCN(CC(=O)[O-])CC2)C(=O)NCC2CCC(C(=O)NCCCOc3ccc4nccc(C(=O)NCC(=O)N5CC(F)(F)CC5C#N)c4c3)CC2)cc1)C(C)(C)C.[Lu+3]` (stereo not drawn) [[^18F]21], for which the “FAP-negative HT-1080 tumor uptake (PET)” value in data set [3] is “did not show any uptakes”. Moreover, the “metabolization in blood samples (radio-HPLC)” value in [4] (ICR mice, within 4 h pi) is recorded as “little evidence of any metabolization”. The molecule also gave an in vivo stability in data set [4] (as summarised in discussion) above 90%. Moreover, the internalization rate in data set [5] is reported as above 80%. The “cell uptake in FAP negative cells” value in [6] was “Almost no uptakes”. In addition, the “time stable in vitro” value in [7] (37 °C, PBS or murine serum) was “at least 2 h”. In data set [7] (as summarised in discussion), this molecule came in with an in vitro stability above 90%. Besides, in [8] (60 min pi), the “tumor uptake (PET ROI), without competitor” value is given as 14.13 ± 3.19 %ID/g. Besides, in data set [8] (setting [10]), the “tumor uptake (PET ROI), blocking with FAPI-04” value worked out at 3.8 ± 0.89 %ID/g and the “uptake in joints, blocking with FAPI-04” value is recorded as “blocked significantly”. The “fold higher tumor uptake than [^68 Ga]Ga-FAPI-04” value in data set [8] (2 h pi) came to 14.9 fold. The “HT-1080-FAP tumor uptake (PET)” value in [8] (2 h pi, dynamic PET) turned out to be 10.04 %ID/g. The cell uptake in data set [9] (10 min incubation) was 60.18% ± 3.84. Besides, in data set [9] (1 h incubation), the cell uptake is 86.43% ± 5.47 and 86.43% ± 5.46. Besides, in data set [9] (co-incubation with 100 μM FAP inhibitor UAMC1110), the “cell uptake with competitor” value is on record as “could be blocked by FAP inhibitor; also recorded: could be blocked by UAMC1110”.

(Values after paper PMC10250256, “A radiohybrid theranostics ligand labeled with fluorine-18 and lutetium-177 for fibroblast activation protein-targeted imaging and radionuclide therapy” (European Journal of Nuclear Medicine and Molecular Imaging, 2023).)
